The target in this assay is T1, recombinant human AMPK complex, containing α2β1γ2 (Homo sapiens, UniProt P54646+Q9Y478).
T1 construct: hsAMPKα2-552-His, hsAMPKβ1-2-270 and hsAMPKγ-2-569 respectively; hsAMPKβ1-2-270; hsAMPKγ-2-569; His (C); made in house; host or cells: Spodoptera frugiperda Sf21 (baculovirus)
Briefly: AMPK in vitro activation assay (HTRF). Particulars: for pEC50: HTRF, recombinant human α2β1γ2 AMPK, 200 μM ATP, biotinylated ACC-CREBp peptide, repeat determinations on separate lines; for Emax: potentiation of AMPK activity as percent over the basal signal (without compound). It counts as biochemical. Summed up:
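Sf21-expressed, Ni-NTA partially purified α2β1γ2 complex preincubated 30 min at room temperature with compound (0.5% DMSO) in HEPES pH 7.0, MgCl2, DTT. Reaction was started with a solution holding 200 μM ATP and 2 or 0.08 μM biotinylated ACC-CREBp peptide, run 45 min at 37° C, then read by HTRF with anti-pS133-CREB; EC50 from percent over basal.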
For orientation: Time-resolved FRET reads energy transfer from a long-lived donor to a nearby acceptor.

Each structure is given as a SMILES string. pEC50: −log10 of the molar value. Values joined by “and” are separate entries in the source; they are usually repeats but may differ in a detail not shown here. Identical values can stand only once. Counter-ions that a name gives are not always drawn.

The pEC50 is the EC50 on a negative log10 scale, so that one unit is a factor of ten. One may read the Emax as the maximal effect, on the per cent scale that the assay sets.

T1 sequence (P54646 2-552): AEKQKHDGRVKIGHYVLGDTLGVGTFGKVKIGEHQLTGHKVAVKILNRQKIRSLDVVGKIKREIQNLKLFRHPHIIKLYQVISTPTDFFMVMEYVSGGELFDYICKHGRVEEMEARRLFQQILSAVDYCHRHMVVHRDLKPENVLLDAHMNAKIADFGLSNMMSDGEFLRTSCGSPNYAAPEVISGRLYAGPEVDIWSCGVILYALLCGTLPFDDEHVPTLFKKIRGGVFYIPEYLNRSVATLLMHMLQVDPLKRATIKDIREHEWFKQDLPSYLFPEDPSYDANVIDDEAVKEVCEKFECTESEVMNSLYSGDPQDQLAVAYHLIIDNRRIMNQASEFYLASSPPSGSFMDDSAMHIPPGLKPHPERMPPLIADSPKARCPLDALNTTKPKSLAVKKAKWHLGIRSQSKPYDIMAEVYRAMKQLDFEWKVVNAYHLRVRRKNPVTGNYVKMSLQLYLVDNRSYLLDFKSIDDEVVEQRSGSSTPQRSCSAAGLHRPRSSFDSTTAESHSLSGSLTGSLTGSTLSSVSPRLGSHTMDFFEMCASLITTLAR
T1 sequence (Q9Y478 2-270): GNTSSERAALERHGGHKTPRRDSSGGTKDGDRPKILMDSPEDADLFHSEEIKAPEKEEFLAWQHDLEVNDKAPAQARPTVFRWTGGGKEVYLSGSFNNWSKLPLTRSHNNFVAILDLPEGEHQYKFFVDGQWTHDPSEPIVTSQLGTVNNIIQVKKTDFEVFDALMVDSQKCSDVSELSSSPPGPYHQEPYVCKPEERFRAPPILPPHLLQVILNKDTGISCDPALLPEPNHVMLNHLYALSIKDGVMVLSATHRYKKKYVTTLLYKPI
T1 sequence (Q9UGJ0 2-569 partner limits assumed): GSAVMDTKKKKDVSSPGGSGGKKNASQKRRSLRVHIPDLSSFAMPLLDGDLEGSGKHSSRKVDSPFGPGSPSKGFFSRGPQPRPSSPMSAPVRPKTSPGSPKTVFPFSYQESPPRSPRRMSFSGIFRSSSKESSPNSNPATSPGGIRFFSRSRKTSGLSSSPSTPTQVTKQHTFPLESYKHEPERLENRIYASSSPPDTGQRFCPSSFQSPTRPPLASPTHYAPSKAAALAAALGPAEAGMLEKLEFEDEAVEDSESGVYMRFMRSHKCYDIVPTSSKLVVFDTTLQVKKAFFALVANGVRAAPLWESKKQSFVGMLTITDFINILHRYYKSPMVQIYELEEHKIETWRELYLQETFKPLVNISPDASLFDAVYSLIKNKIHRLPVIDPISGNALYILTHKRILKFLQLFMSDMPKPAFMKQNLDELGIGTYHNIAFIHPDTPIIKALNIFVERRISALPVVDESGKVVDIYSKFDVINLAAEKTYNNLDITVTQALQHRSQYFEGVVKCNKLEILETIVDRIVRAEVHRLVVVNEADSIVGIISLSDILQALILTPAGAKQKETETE

On to `COc1cc(C(O)=C2C(=O)Nc3cc(Cl)c(-c4ccc(C5(OC)CCC5)cc4)cc32)on1` [Compound 110, 6-chloro-3-[hydroxy-(3-methoxyisoxazol-5-yl)methylene]-5-[4-(1-methoxycyclobutyl)phenyl]indolin-2-one], for which the pEC50 is 8.22 and the Emax turned out to be 131%.

`COc1cc(C(O)=C2C(=O)Nc3cc(Cl)c(-c4ccc(C5(CO)CC5)cc4F)cc32)on1` [Compound 111, 6-chloro-5-[2-fluoro-4-[1-(hydroxymethyl)cyclopropyl]phenyl]-3-[hydroxy-(3-methoxyisoxazol-5-yl)methylene]indolin-2-one]: the pEC50 is 9.00 and the Emax was determined as 175%.

In the case of `CC(C)(C)c1cc(C(O)=C2C(=O)Nc3cc(Cl)c(-c4ccc(N5CCOCC5)cc4)cc32)on1` [Compound 112, 3-[(3-tert-butylisoxazol-5-yl)-hydroxy-methylene]6-chloro-5-(4-morpholinophenyl)indolin-2-one], the pEC50 was 7.89 and the Emax stood at 197%.

As for `O=C1Nc2cc(Cl)c(-c3ccc(C4(CO)CC4)cc3F)cc2C1=C(O)c1cc(C2CC2)no1` [Compound 113, 6-chloro-3-[(3-cyclopropylisoxazol-5-yl)hydroxy-methylene]-5-[2-fluoro-4-[1-(hydroxymethyl)cyclopropyl]phenyl]indolin-2-one], the pEC50 is 9.22 and the Emax was found to be 126%.

For `O=C1Nc2cc(Cl)c(-c3ccc(C4(CO)CC4)cc3)cc2C1=C(O)c1cccs1` [Compound 114, 6-chloro-5-[4-[1-(hydroxymethyl)cyclopropyl]phenyl]-3-[hydroxy(2-thienyl)methylene]indolin-2-one], the pEC50 is 8.40 and the Emax stood at 143%.

As to `Cc1cc(C(O)=C2C(=O)Nc3cc(Cl)c(-c4ccc(OCC5CCO5)cc4)cc32)on1` (stereo not shown) [Compound 115, 6-chloro-3-[hydroxy-(3-methylisoxazol-5-yl)methylene]-5-[4-(oxetan-2-ylmethoxy)phenyl]indolin-2-one], the negative-log EC50 (pEC50) is 7.52 and the Emax was 149%.

With `COc1ccc(C(O)=C2C(=O)Nc3cc(Cl)c(-c4ccc(C5(CO)CC5)cc4)cc32)cn1` [Compound 116, 6-chloro-3-[hydroxy-(6-methoxy-3-pyridyl)methylene]-5-[4-[1-(hydroxymethyl)cyclopropyl]phenyl]indolin-2-one hydrochloride], the pEC50 was 9.52 and 9.10.

With `COc1cccc(-c2ccc(-c3cc4c(cc3Cl)NC(=O)C4=C(O)c3cc(C4CC4)no3)cc2)c1O` [Compound 117, 6-chloro-3-[(3-cyclopropylisoxazol-5-yl)hydroxy-methylene]-5-[4-(2-hydroxy-3-methoxy-phenyl)phenyl]indolin-2-one], the pEC50 was 10.00 and the Emax was 129%.

For the molecule `COc1cc(C(O)=C2C(=O)Nc3cc(F)c(-c4ccc(C5(CO)CC5)cc4)cc32)on1` [Compound 118, 6-fluoro-3-[hydroxy-(3-methoxyisoxazol-5-yl)methylene]-5-[4-[1-(hydroxymethyl)cyclopropyl]phenyl]indolin-2-one], the pEC50 is 9.30 and the Emax amounted to 133%.

As for `O=C1Nc2cc(F)c(-c3ccc(C4(CO)CC4)cc3)cc2C1=C(O)c1cc(C2CC2)no1` [Compound 119, 3-[(3-cyclopropylisoxazol-5-yl)hydroxy-methylene]6-fluoro-5-[4-[1-(hydroxymethyl)cyclopropyl]phenyl]indolin-2-one], the pEC50 was 9.22 and the Emax was 133%.

Turning to `O=C1Nc2cc(F)c(-c3ccc(C4(CO)CC4)cc3)c(F)c2C1=C(O)c1cc(C2CC2)no1` [Compound 120, 3-[(3-cyclopropylisoxazol-5-yl)hydroxy-methylene]-4,6-difluoro-5-[4-[1-(hydroxymethyl)cyclopropyl]phenyl]indolin-2-one], the pEC50 is 9.70 and the Emax is 169%.

As to `COc1cc(C(O)=C2C(=O)Nc3cc(Cl)c(-c4ccc(C(CO)CO)cc4)cc32)on1` [Compound 121, 6-chloro-5-[4-[2-hydroxy-1-(hydroxymethyl)ethyl]phenyl]-3-[hydroxy-(3-methoxyisoxazol-5-yl)methylene]indolin-2-one], the pEC50 was 8.40 and the Emax was 172%.

Regarding `COc1cc(C(O)=C2C(=O)Nc3cc(Cl)c(-c4ccc(C(O)CO)cc4)cc32)on1` (stereo not shown) [Compound 122, 6-chloro-5-[4-(1,2-dihydroxyethyl)phenyl]-3-[hydroxy-(3-methoxyisoxazol-5-yl)methylene]indolin-2-one], the pEC50 was 8.15 and the Emax amounted to 172%.

For the molecule `Cc1ccc(C(O)=C2C(=O)Nc3cc(Cl)c(-c4ccc(C5(CO)CC5)cc4)cc32)s1` [Compound 123, 6-chloro-5-[4-[1-(hydroxymethyl)cyclopropyl]phenyl]-3-[hydroxy-(5-methyl-2-thienyl)methylene]indolin-2-one], the pEC50 was 9.40 and the Emax stood at 272%.

`COc1cc(C(O)=C2C(=O)Nc3cc(Cl)c(-c4ccc(OC5CCN(C)CC5)cc4)cc32)on1` [Compound 124, 6-chloro-3-[hydroxy-(3-methoxyisoxazol-5-yl)methylene]-5-[4-[(1-methyl-4-piperidyl)oxy]phenyl]indolin-2-one hydrochloride]: the pEC50 is 7.60 and the Emax came out at 231%.

As for `COc1ccc(C(O)=C2C(=O)Nc3cc(F)c(-c4ccc(C5(CO)CC5)cc4)cc32)cc1F` [Compound 125, 6-fluoro-3-[(3-fluoro-4-methoxy-phenyl)hydroxy-methylene]-5-[4-[1-(hydroxymethyl)cyclopropyl]phenyl]indolin-2-one], the negative-log EC50 (pEC50) is 9.70 and the Emax was 230%.

As for `O=C1Nc2cc(Cl)c(-c3ccc(C4(CO)CC4)cc3)cc2C1=C(O)c1ccco1` [Compound 126, 6-chloro-3-[2-furyl(hydroxy)methylene]-5-[4-[1-(hydroxymethyl)cyclopropyl]phenyl]indolin-2-one], the pEC50 was 9.52 and the Emax turned out to be 295%.

`COc1cc(C(O)=C2C(=O)Nc3cc(Cl)c(-c4ccc(N(C)C)cc4)cc32)on1` [Compound 127, 6-chloro-5-(4-dimethylaminophenyl)-3-[hydroxy-(3-methoxyisoxazol-5-yl)methylene]indolin-2-one]: the Emax is 296%.

Consider `COc1cc(C(O)=C2C(=O)Nc3cc(Cl)c(-c4ccc(OC5CCOCC5)cc4)cc32)on1` [Compound 128, 6-chloro-3-[hydroxy-(3-methoxyisoxazol-5-yl)methylene]-5-(4-tetrahydropyran-4-yloxyphenyl)indolin-2-one], for which the pEC50 was 7.28 and the Emax was determined as 288%.

On to `COc1cc(C(O)=C2C(=O)Nc3cc(Cl)c(-c4ccc(OCCCO)cc4)cc32)on1` [Compound 129, 6-chloro-3-[hydroxy-(3-methoxyisoxazol-5-yl)methylene]-5-[4-(3-hydroxypropoxy)phenyl]indolin-2-one], for which the pEC50 was 7.70 and 8.00.

Take `O=C1Nc2cc(Cl)c(-c3ccc(C4(CO)CC4)cc3)cc2C1=C(O)c1ccc(Cl)s1` [Compound 130, 6-chloro-3-[(5-chloro-2-thienyl)hydroxy-methylene]-5-[4-[1-(hydroxymethyl)cyclopropyl]phenyl]indolin-2-one]: the pEC50 is 8.05 and the Emax came out at 373%.

Turning to `COCCCOc1ccc(-c2cc3c(cc2Cl)NC(=O)C3=C(O)c2cc(OC)no2)cc1` [Compound 131, 6-chloro-3-[hydroxy-(3-methoxyisoxazol-5-yl)methylene]-5-[4-(3-methoxypropoxy)phenyl]indolin-2-one], the pEC50 is 7.48 and 7.07.

On to `Cc1cc(C(O)=C2C(=O)Nc3cc(Cl)c(-c4ccc(OCC5COC5)cc4)cc32)on1` [Compound 132, 6-chloro-3-[hydroxy-(3-methylisoxazol-5-yl)methylene]-5-[4-(oxetan-3-ylmethoxy)phenyl]indolin-2-one], for which the negative logarithm of the EC50 (pEC50) is 7.31 and the Emax amounted to 364%.

As to `COc1cc(C(O)=C2C(=O)Nc3cc(Cl)c(-c4ccc(C5CCN(C)C5)cc4)cc32)on1` (stereo not shown) [Compound 133, 6-chloro-3-[hydroxy-(3-methoxyisoxazol-5-yl)methylene]-5-[4-(1-methylpyrrolidin-3-yl)phenyl]indolin-2-one hydrochloride], the pEC50 is 7.85 and the Emax is 397%.

`COc1cc(C(O)=C2C(=O)Nc3cc(Cl)c(-c4ccc(C5CCNC5)cc4)cc32)on1` (stereo not shown) [Compound 134, 6-chloro-3-[hydroxy-(3-methoxyisoxazol-5-yl)methylene]-5-(4-pyrrolidin-3-ylphenyl)indolin-2-one hydrochloride]: the pEC50 was 8.05 and the Emax is 394%.

`COc1cc(C(O)=C2C(=O)Nc3cc(Cl)c(-c4ccc(C5CC(O)C5)cc4)cc32)on1` (stereo not shown) [Compound 135, 6-chloro-5-[4-(3-hydroxycyclobutyl)phenyl]-3-[hydroxy-(3-methoxyisoxazol-5-yl)methylene]indolin-2-one]: the pEC50 is 8.05 and the Emax was found to be 319%.

In the case of `COc1cc(C(O)=C2C(=O)Nc3cc(Cl)c(-c4ccc(OCc5cncs5)cc4)cc32)on1` [Compound 136, 6-chloro-3-[hydroxy-(3-methoxyisoxazol-5-yl)methylene]-5-[4-(thiazol-5-ylmethoxy)phenyl]indolin-2-one], the pEC50 was 7.59 and the Emax came out at 309%.

As for `COc1cc(C(O)=C2C(=O)Nc3cc(Cl)c(-c4ccc(N5CCCC5)cc4)cc32)on1` [Compound 137, 6-chloro-3-[hydroxy-(3-methoxyisoxazol-5-yl)methylene]-5-(4-pyrrolidin-1-ylphenyl)indolin-2-one], the pEC50 is 7.80 and the Emax is 271%.

Values taken from US10077237B2 (Sanofi, priority 2013, dated 2018).
